Tested on: not listed separately
Experiment: Sulforhodamine B (SRB) growth inhibition / growth arrest assay
Assay type: cell-based
Settings: activity range
Method: A growth inhibition assay was also employed for the evaluation of candidate HSP90 inhibitors:
Assessment of Cytotoxicity by Sulforhodamine B (SRB) Assay: Calculation of 50% Inhibitory Concentration (IC50).
Day 1 • 1) Determine cell number by haemocytometer. • 2) Using an 8 channel multipipettor, add 160 μl of the cell suspension (3600 cells/well or 2×10^4 cells/ml) to each well of a 96-well microtitre plate. • 3) Incubate overnight at 37° C. in a CO2 incubator. Day 2 • 4) Stock solutions of drugs are prepared, and serial dilutions of each drug are performed in medium to give final concentrations in wells. • 5) Using a multipipettor, 40 μl of drug (at 5× final concentration) is added to quadruplicate wells. • 6) Control wells are at either side of the 96 well plates, where 40 μl of medium is added. • 7) Incubate plates in CO2 incubator for 4 days […]. […] Leave for 15 mins. • 12) Wash off unbound SRB stain with four washes of 1% acetic acid. • 13) Dry plates in incubator. • 14) Solubilise SRB using 100 μl of 10 mM Tris base and put plates on plate shaker for 5 mins. • 15) Determine absorbance at 540 nm using a plate reader. Calculate mean absorbance for quadruplicate wells and express as a percentage of value for control, untreated wells. • 16) Plot % absorbance values versus log drug concentration and determine the IC50.

SMILES	IC50
CCOC(=O)c1cc2c(-c3ccc(C(F)(F)F)cc3)nc(N)nc2s1 [Example 2, 2-Amino-4-(4-trifluoromethyl-phenyl)-thieno[2,3-d]pyrimidine-6-carboxylic acid ethyl ester]	< 50 µM

Biological target: T1, Human full-length Hsp90 (Homo sapiens, UniProt P08238)
T1 construct: E. coli expressed human full-length HSP90 protein, purified >95%; made in house; host or cells: E. coli
Experiment: Fluorescence polarization assay (competitive binding to HSP90, probe RBT0045864-FAM)
Settings: fluorescence polarization assay, activity range; read-out: Hsp90 FP IC50
How it was run: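 Competitive fluorescence polarization: test compound displaces FAM-labelled probe RBT0045864-FAM (200 nM working solution) from HSP90 after equilibration, and anisotropy change is measured. Compounds serially diluted; BSA-containing buffer; standard compound as positive control; Z′ from zero and positive controls.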

T1 sequence (P08238 whole entry): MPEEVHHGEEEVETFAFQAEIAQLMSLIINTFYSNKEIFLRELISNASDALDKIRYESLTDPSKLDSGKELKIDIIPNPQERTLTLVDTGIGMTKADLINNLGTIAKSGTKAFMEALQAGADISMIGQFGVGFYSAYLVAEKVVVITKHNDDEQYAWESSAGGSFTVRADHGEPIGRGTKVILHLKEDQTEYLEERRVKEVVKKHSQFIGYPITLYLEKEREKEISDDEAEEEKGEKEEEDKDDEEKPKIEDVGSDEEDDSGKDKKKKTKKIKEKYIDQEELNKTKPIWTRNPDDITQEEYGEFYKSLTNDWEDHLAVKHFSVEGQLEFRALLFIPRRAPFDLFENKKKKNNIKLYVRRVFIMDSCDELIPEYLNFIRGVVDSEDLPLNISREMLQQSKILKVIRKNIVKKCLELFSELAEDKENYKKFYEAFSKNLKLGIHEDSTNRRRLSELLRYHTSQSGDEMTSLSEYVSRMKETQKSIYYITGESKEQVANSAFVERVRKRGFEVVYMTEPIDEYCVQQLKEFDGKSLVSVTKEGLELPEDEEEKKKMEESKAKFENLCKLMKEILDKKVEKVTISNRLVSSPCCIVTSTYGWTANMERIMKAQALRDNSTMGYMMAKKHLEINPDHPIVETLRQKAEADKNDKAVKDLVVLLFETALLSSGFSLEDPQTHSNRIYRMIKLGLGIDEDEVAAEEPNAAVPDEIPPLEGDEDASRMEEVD

SMILES	IC50
CCOC(=O)c1cc2c(-c3ccc(C(F)(F)F)cc3)nc(N)nc2s1 [Example 2, 2-Amino-4-(4-trifluoromethyl-phenyl)-thieno[2,3-d]pyrimidine-6-carboxylic acid ethyl ester]	> 10 µM
CCOC(=O)c1cc2c(/C=C/C(C)(C)C)nc(N)nc2s1 [Example 289]	> 10 µM
CCOC(=O)c1cc2c(-c3csc4ccccc34)nc(N)nc2s1 [Example 290]	> 10 µM
CC=Cc1nc(N)nc2sc(C(=O)OCC)cc12 [Example 291]	> 10 µM
CCC/C=C/c1nc(N)nc2sc(C(=O)OCC)cc12 [Example 292]	> 10 µM
CCNC(=O)c1cc2c(OCc3ccccc3)nc(N)nc2s1 [Example 294]	> 10 µM
CCOC(=O)c1cc2c(-c3c[nH]c4ccccc34)nc(N)nc2s1 [Example 294]	> 10 µM
CCOC(=O)c1cc2c(C(=O)c3cc(C)c(C)cc3C)nc(N)nc2s1 [Example 308]	< 10 µM
CCOC(=O)c1cc2c(C(=O)c3ccc(Cl)c(Cl)c3)nc(N)nc2s1 [Example 309]	< 10 µM
CCOC(=O)c1cc2c(C(=O)c3ccc(OC)c(OC)c3)nc(N)nc2s1 [Example 310]	< 10 µM
CCOC(=O)c1cc2c(C(=O)c3ccccc3C)nc(N)nc2s1 [Example 311]	< 10 µM
CCOC(=O)c1cc2c(C(=O)c3ccc4c(c3)OCCO4)nc(N)nc2s1 [Example 312]	< 10 µM
CCOC(=O)c1cc2c(C(=O)c3ccc(Cl)c(F)c3)nc(N)nc2s1 [Example 313]	< 10 µM
CCOC(=O)c1cc2c(C(=O)c3ccc(OC)c(F)c3)nc(N)nc2s1 [Example 314]	< 10 µM
CCOC(=O)c1cc2c(C(C)(O)c3ccc4c(c3)OCO4)nc(N)nc2s1 (centres unmarked) [Example 315, 2-Amino-4-(1-benzo[1,3]dioxol-5-yl-1-hydroxy-ethyl)-thieno[2,3-d]pyrimidine-6-carboxylic acid ethyl ester]	< 10 µM
CCOC(=O)c1cc2c(C(C#N)c3ccc4c(c3)OCO4)nc(N)nc2s1 (centres unmarked) [Example 316, 2-Amino-4-(benzo[1,3]dioxol-5-yl-cyano-methyl)-thieno[2,3-d]pyrimidine-6-carboxylic acid ethyl ester]	< 10 µM
CCOC(=O)c1cc2c(C(C#N)c3ccccc3)nc(N)nc2s1 (centres unmarked) [Example 317]	< 10 µM
CCOC(=O)c1cc2c(C(C#N)c3ccc(OC)cc3)nc(N)nc2s1 (centres unmarked) [Example 318]	> 10 µM
CCOC(=O)c1cc2c(C#N)nc(N)nc2s1 [Example 319, 2-Amino-4-cyano-thieno[2,3-d]pyrimidine-6-carboxylic acid ethyl ester]	< 10 µM

The next lines start with the values.

IC50	SMILES
< 10 µM	CCOC(=O)c1cc2c(C(C)c3ccccc3)nc(N)nc2s1 (centres unmarked) [Example 285]
< 10 µM	CCNC(=O)c1cc2c(/C=C/c3ccccc3)nc(N)nc2s1 [Example 286]
< 10 µM	CCNC(=O)c1cc2c(C(C)c3ccccc3)nc(N)nc2s1 (centres unmarked) [Example 287]
< 10 µM	CCOC(=O)c1cc2c(/C=C/c3ccc(C(F)(F)F)cc3)nc(N)nc2s1 [Example 288]
< 10 µM	CCOC(=O)c1cc2c(-c3cncc4ccccc34)nc(N)nc2s1 [Example 293]
< 10 µM	CCOC(=O)c1cc2c(C(=O)c3ccc(Cl)cc3)nc(N)nc2s1 [Example 295, 2-Amino-4-(4-chloro-benzoyl)-thieno[2,3-d]pyrimidine-6-carboxylic acid ethyl ester]
< 10 µM	CCOC(=O)c1cc2c(C(=O)c3ccccc3)nc(N)nc2s1 [Example 296]
< 10 µM	CCOC(=O)c1cc2c(C(=O)c3ccc(OC)cc3)nc(N)nc2s1 [Example 297]
< 10 µM	CCOC(=O)c1cc2c(C(=O)c3ccc4c(c3)OCO4)nc(N)nc2s1 [Example 298]
< 10 µM	CCOC(=O)c1cc2c(C(=O)c3cc(C)ccc3C)nc(N)nc2s1 [Example 299]
< 10 µM	CCOC(=O)c1cc2c(C(=O)c3cc(C)cc(C)c3)nc(N)nc2s1 [Example 300]
< 10 µM	CCOC(=O)c1cc2c(C(=O)c3ccccc3F)nc(N)nc2s1 [Example 301]
< 10 µM	CCOC(=O)c1cc2c(C(=O)c3ccccc3Cl)nc(N)nc2s1 [Example 302]
< 10 µM	CCOC(=O)c1cc2c(C(=O)c3cccc(F)c3)nc(N)nc2s1 [Example 303]
< 10 µM	CCOC(=O)c1cc2c(C(=O)c3cccc(Cl)c3)nc(N)nc2s1 [Example 304]
< 10 µM	CCOC(=O)c1cc2c(C(=O)c3ccc(F)cc3)nc(N)nc2s1 [Example 305]
< 10 µM	CCOC(=O)c1cc2c(C(=O)c3ccc(C)c(C)c3)nc(N)nc2s1 [Example 306]
< 10 µM	CCOC(=O)c1cc2c(C(=O)c3cccc(C)c3C)nc(N)nc2s1 [Example 307]
